Assay results from US4393225A, “AI-77 Compounds and pharmaceutically acceptable salts thereof” (Asahi Kasei Kogyo Kabushiki Kaisha, priority 1979, dated 1983).

System: ulcer
Assay: Anti-ulcer test (restraint and water immersion ulcer in rats, i.p.)
Type: in vivo, Male Wistar rats
Conditions: Rattus norvegicus, ip; 50 mg/kg i.p.; read-out: % Inhibition of Ulcer
Protocol: The anti-ulcer and anti-edema activity of the compounds was evaluated in efficacy tests described below.
Male Wistar rats weighing about 150 g on average were not fed for 24 hours before the test. Then a solution or suspension of a predetermined concentration of the test compound in physiological saline was administered to them intraperitoneally. One hour after the administration,each rat was restrained in a net cage and submerged in a water both (21° C.) from the tail to xiphistrenun for 6 hours. Test animals were then killed (by dislocation of the cervical vertebrae), the stomach was removed and incised along the curvatura ventriculi major, and the inside wall of the stomach was pathologically examined under microscopic observation. Rats in which the occurrence of an ulceration was substantially not observed were rated O, while others were rated 0.5, 1, 2 or 3, depending on the severity of the ulcer development. The percent inhibition of ulcer was calculated by the following formula: [formula]

Row | SMILES | inhibition in vivo at 50 mg/kg [%]
1 | CCOc1cccc2c1C(=O)OC(C(CC(C)C)NC(=O)C(O)C1OC(=O)CC1NC(=O)c1cccs1)C2 (stereo not drawn) [IIIa-5-25] | 44
2 | CCOc1cccc2c1C(=O)OC(C(CC(C)C)NC(=O)C(O)C1OC(=O)CC1NC(=O)c1nnnn1C)C2 (stereo not drawn) [IIIa-5-27] | 44
3 | CCOc1cccc2c1C(=O)OC(C(CC(C)C)NC(=O)C(O)C1OC(=O)CC1NC(=O)c1cccn1C(C)=O)C2 (stereo not drawn) [IIIa-5-28] | 44
4 | CCOc1cccc2c1C(=O)OC(C(CC(C)C)NC(=O)C(O)C1OC(=O)CC1NC(=O)c1cccn1C)C2 (stereo not drawn) [IIIa-5-29] | 33
5 | CCOc1cccc2c1C(=O)OC(C(CC(C)C)NC(=O)C(O)C1OC(=O)CC1NC(=O)c1cnc3ccc(OC)cc3c1)C2 (stereo not drawn) [IIIa-5-30] | 33
6 | CCOc1cccc2c1C(=O)OC(C(CC(C)C)NC(=O)C(O)C1OC(=O)CC1NC(=O)CCCBr)C2 (stereo not drawn) [IIIa-5-31] | 44
7 | CCOc1cccc2c1C(=O)OC(C(CC(C)C)NC(=O)C(O)C1OC(=O)CC1NC(=O)C(=O)CC)C2 (stereo not drawn) [IIIa-5-32] | 44
8 | CCOc1cccc2c1C(=O)OC(C(CC(C)C)NC(=O)C(O)C1OC(=O)CC1NC(=O)C1CCCCC1=O)C2 (stereo not drawn) [IIIa-5-33] | 44
9 | CCOc1cccc2c1C(=O)OC(C(CC(C)C)NC(=O)C(O)C1OC(=O)CC1NC(=O)c1cn(C(C)=O)c3ccccc13)C2 (stereo not drawn) [IIIa-5-34] | 33
10 | CCOc1cccc2c1C(=O)OC(C(CC(C)C)NC(=O)C(O)C1OC(=O)CC1NC(=O)c1ccc(OC(C)=O)cc1)C2 (stereo not drawn) [IIIa-5-35] | 44
11 | CCOC(=O)CCC(=O)NC1CC(=O)OC1C(O)C(=O)NC(CC(C)C)C1Cc2cccc(OCC)c2C(=O)O1 (stereo not drawn) [IIIa-5-36] | 44
12 | CCOc1cccc2c1C(=O)OC(C(CC(C)C)NC(=O)C(O)C1OC(=O)CC1NC(=O)c1ccc(C)cc1)C2 (stereo not drawn) [IIIa-5-37] | 44
13 | CCOc1cccc2c1C(=O)OC(C(CC(C)C)NC(=O)C(O)C1OC(=O)CC1NC(=O)c1ccc(CCC(C)C)cc1)C2 (stereo not drawn) [IIIa-5-38] | 33
14 | CCOc1cccc2c1C(=O)OC(C(CC(C)C)NC(=O)C(O)C1OC(=O)CC1NC(=O)c1ccc(OC)cc1)C2 (stereo not drawn) [IIIa-5-39] | 44
15 | CCOc1cccc2c1C(=O)OC(C(CC(C)C)NC(=O)C(O)C1OC(=O)CC1NC(=O)CC(C)OC)C2 (stereo not drawn) [IIIa-5-41] | 33
16 | CCCCCOC(C)CC(=O)NC1CC(=O)OC1C(O)C(=O)NC(CC(C)C)C1Cc2cccc(OCC)c2C(=O)O1 (stereo not drawn) [IIIa-5-42] | 33
17 | CCOc1cccc2c1C(=O)OC(C(CC(C)C)NC(=O)C(O)C1OC(=O)CC1NC(=O)CSC)C2 (stereo not drawn) [IIIa-5-43] | 44
18 | CCCCCSCC(=O)NC1CC(=O)OC1C(O)C(=O)NC(CC(C)C)C1Cc2cccc(OCC)c2C(=O)O1 (stereo not drawn) [IIIa-5-44] | 33
19 | CCOc1cccc2c1C(=O)OC(C(CC(C)C)NC(=O)C(O)C1OC(=O)CC1NC(=O)c1ccc(SC)cc1)C2 (stereo not drawn) [IIIa-5-45] | 33
20 | CCCCCSc1ccc(C(=O)NC2CC(=O)OC2C(O)C(=O)NC(CC(C)C)C2Cc3cccc(OCC)c3C(=O)O2)cc1 (stereo not drawn) [IIIa-5-46] | 33
21 | CCOc1cccc2c1C(=O)OC(C(CC(C)C)NC(=O)C(O)C1OC(=O)CC1NC(=O)CC(C)OC(C)=O)C2 (stereo not drawn) [IIIa-5-47] | 33
22 | CCCCCC(=O)OC(C)CC(=O)NC1CC(=O)OC1C(O)C(=O)NC(CC(C)C)C1Cc2cccc(OCC)c2C(=O)O1 (stereo not drawn) [IIIa-5-48] | 33
23 | CCOc1cccc2c1C(=O)OC(C(CC(C)C)NC(=O)C(O)C1OC(=O)CC1NC(=O)c1ccc(C(=O)OC)cc1)C2 (stereo not drawn) [IIIa-5-49] | 33
24 | CCCCCOC(=O)c1ccc(C(=O)NC2CC(=O)OC2C(O)C(=O)NC(CC(C)C)C2Cc3cccc(OCC)c3C(=O)O2)cc1 (stereo not drawn) [IIIa-5-50] | 33
25 | C#CC(=O)NC1CC(=O)OC1C(O)C(=O)NC(CC(C)C)C1Cc2cccc(OCC)c2C(=O)O1 (stereo not drawn) [IIIa-5-51] | 44
26 | C/C=C/C(=O)NC1CC(=O)OC1C(O)C(=O)NC(CC(C)C)C1Cc2cccc(OCC)c2C(=O)O1 (stereo not drawn) [IIIa-5-53] | 33
27 | CCOc1cccc2c1C(=O)OC(C(CC(C)C)NC(=O)C(O)C1OC(=O)CC1NC(=O)CCCCC(C)CC)C2 (stereo not drawn) [IIIa-5-55] | 33
28 | CCOc1cccc2c1C(=O)OC(C(CC(C)C)NC(=O)C(O)C1OC(=O)CC1NC(=O)C=Cc1ccoc1)C2 (stereo not drawn) [IIIa-5-56] | 44
29 | CCOc1cccc2c1C(=O)OC(C(CC(C)C)NC(=O)C(O)C1OC(=O)CC1NC(=O)Cc1cccnc1)C2 (stereo not drawn) [IIIa-5-57] | 33
30 | CCOc1cccc2c1C(=O)OC(C(CC(C)C)NC(=O)C(O)C1OC(=O)CC1NC(=O)C1CCC=CO1)C2 (stereo not drawn) [IIIa-5-58] | 44
